28 compounds from US11008314B2, “Compounds and methods for modulating interleukin-2-inducible t-cell kinase” (CORVUS PHARMACEUTICALS, INC., priority 2016, dated 2021) can be followed below.

Common to all, as to type: biochemical
One test has as its target ITK (Homo sapiens (Human), UniProt Q08881). As to the kind of experiment: IC50 against ITK.
The target of the next test is TXK (Homo sapiens (Human), UniProt P42681). As to the kind of experiment: IC50 against TXK. The conditions noted are these: for TXK/ITK: ratio of TXK IC50 to ITK IC50.
Chain of TXK (P42681 whole entry, species assumed): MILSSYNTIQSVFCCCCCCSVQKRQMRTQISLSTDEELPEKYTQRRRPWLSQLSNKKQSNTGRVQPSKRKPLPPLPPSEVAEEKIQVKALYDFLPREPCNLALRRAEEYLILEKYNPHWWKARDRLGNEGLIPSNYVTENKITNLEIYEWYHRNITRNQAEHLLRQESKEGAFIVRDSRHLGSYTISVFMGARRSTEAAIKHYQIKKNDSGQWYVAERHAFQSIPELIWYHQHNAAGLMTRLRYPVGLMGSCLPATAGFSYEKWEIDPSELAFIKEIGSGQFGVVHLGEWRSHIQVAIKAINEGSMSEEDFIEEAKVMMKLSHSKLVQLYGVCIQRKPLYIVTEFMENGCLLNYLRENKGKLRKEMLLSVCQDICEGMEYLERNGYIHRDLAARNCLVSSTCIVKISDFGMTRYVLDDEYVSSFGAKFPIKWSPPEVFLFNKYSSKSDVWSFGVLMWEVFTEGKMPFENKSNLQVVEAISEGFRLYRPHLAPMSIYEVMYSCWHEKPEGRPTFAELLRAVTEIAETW
A further test addresses JAK3 (Homo sapiens (Human), UniProt P52333). As to the kind of experiment: IC50 against JAK3.
Another test deals with BTK (Homo sapiens (Human), UniProt Q06187). As to the kind of experiment: IC50 against BTK.
Chain of BTK (Q06187 whole entry, species assumed): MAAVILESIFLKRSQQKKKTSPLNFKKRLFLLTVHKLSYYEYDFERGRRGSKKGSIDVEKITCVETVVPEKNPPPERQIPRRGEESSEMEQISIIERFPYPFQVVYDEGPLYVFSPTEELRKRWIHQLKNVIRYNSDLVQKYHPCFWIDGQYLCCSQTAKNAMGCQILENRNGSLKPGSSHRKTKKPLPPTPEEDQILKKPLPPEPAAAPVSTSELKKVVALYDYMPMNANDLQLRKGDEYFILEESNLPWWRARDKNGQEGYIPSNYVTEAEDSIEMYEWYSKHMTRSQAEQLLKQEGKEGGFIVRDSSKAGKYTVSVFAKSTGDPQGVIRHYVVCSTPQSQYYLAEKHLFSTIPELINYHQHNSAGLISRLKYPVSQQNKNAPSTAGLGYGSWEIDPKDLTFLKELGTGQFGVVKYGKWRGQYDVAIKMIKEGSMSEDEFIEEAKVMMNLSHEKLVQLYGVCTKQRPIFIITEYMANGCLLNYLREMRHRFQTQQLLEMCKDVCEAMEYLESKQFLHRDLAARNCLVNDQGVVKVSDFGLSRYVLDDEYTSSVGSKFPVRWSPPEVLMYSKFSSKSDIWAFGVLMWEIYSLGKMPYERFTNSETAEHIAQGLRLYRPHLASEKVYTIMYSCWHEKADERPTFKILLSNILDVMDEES

SMILES strings stand for the structures.

Chain of JAK3 (P52333 whole entry, species assumed): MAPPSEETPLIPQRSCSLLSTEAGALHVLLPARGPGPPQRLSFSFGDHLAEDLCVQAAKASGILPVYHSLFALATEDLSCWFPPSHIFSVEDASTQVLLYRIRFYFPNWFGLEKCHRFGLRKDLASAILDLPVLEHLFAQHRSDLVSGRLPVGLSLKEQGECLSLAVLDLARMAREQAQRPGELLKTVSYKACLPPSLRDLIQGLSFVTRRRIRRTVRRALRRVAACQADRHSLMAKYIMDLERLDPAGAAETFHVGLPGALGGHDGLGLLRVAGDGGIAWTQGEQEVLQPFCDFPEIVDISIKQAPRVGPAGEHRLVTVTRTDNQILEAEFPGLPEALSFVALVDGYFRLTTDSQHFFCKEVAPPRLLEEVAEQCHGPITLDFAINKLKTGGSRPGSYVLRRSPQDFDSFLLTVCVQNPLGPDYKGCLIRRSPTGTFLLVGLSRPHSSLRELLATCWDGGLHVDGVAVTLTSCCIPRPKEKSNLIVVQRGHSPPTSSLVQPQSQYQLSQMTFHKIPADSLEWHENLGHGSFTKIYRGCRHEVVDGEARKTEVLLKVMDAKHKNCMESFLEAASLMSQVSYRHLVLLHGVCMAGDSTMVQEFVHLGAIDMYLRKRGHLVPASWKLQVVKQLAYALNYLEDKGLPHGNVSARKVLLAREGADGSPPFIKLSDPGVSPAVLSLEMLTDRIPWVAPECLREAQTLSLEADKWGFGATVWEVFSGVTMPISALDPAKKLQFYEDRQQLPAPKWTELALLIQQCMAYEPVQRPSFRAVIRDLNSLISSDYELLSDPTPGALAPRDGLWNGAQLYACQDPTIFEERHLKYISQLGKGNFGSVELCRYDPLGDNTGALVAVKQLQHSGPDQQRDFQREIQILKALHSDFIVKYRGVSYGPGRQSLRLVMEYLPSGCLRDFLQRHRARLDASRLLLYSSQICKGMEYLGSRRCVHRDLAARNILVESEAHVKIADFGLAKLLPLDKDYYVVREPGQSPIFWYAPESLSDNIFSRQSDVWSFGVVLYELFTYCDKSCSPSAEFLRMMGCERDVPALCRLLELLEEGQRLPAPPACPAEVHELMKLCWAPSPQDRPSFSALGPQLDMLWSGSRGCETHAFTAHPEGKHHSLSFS
Chain of ITK (Q08881 whole entry): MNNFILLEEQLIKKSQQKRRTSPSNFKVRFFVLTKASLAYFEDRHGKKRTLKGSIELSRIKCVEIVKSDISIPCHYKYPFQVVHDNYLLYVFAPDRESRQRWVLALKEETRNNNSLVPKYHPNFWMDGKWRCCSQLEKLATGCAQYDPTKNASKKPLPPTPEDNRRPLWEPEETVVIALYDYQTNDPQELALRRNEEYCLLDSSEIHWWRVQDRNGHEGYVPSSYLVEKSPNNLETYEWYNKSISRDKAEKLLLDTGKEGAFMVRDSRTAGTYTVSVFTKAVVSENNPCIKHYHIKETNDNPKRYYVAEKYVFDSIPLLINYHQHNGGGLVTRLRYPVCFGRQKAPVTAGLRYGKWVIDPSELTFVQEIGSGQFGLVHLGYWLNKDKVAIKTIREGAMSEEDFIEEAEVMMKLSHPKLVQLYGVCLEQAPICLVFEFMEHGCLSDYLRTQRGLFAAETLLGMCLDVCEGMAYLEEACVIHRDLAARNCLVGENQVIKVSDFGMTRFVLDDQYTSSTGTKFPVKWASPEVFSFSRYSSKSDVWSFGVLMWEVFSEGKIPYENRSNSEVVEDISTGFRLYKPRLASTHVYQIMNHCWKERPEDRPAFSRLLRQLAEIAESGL

Take `C=CC(=O)N1CCCN(C(=O)c2cc(Sc3cnc(NC(=O)C4CCN(C)CC4)s3)c(C)cc2OC)CC1` [Compound 37]: the IC50 against ITK is 100 to 1000 nM; on TXK, no less than 10000 nM; against JAK3 it was no less than 10000 nM; on BTK it was no less than 10000 nM. Besides, the TXK/ITK on TXK is reported as 46.119.

As for `C=CC(=O)N1CCN(C(=O)c2cc(Sc3cnc(Nc4ccc(CN(C)C)cn4)s3)c(C)cc2OC)CC1` [Compound 134], the IC50 against ITK was less than 10 nM; against TXK it was less than 10 nM; against JAK3 it was 10 to 100 nM; on BTK, less than 10 nM.

As to `C=CC(=O)N1CCN(C(=O)c2cc(Sc3cnc(NC(=O)C4CC4)s3)c(C)cc2C)C[C@H]1C#N` [Compound 118], the IC50 is no less than 10000 nM on ITK, less than 10 nM against TXK, less than 10 nM at JAK3 and less than 10 nM against BTK.

In the case of `CC#CC(=O)N1CCCN(C(=O)c2cc(Sc3cnc(NC(=O)c4cccc(CN(C)C)c4)s3)c(C)cc2OC)CC1` [Compound 38], the IC50 against ITK was 10 to 100 nM; at TXK, 1000 to 10000 nM; on JAK3, no less than 10000 nM; against BTK, 1000 to 10000 nM. In addition, on TXK, the TXK/ITK was determined as 28.189.

For the compound `C=CC(=O)N1CCN(C(=O)c2cc(C(C)c3cnc(Nc4ccccn4)s3)c(C)cc2OC)CC1` (stereo not drawn) [Compound 137], the IC50 against ITK was less than 10 nM; on TXK, less than 10 nM; against JAK3, 100 to 1000 nM; on BTK it was less than 10 nM. The TXK/ITK on TXK was determined as 0.93.

Take `C=CC(=O)N1CCN(C(=O)c2cc(Sc3cnc(NC(C)=O)s3)c(C)cc2OC)C[C@@H]1C` [Compound 12]: the IC50 lay in the range of 10 to 100 nM against ITK, 100 to 1000 nM at TXK, 100 to 1000 nM against JAK3 and 100 to 1000 nM on BTK. Moreover, the TXK/ITK on TXK came out at 14.784.

As to `C=CC(=O)N1CCCN(C(=O)c2cc(Sc3cnc(NC(=O)C4CC4)s3)c(C)cc2OC)C[C@H]1C(C)C` [Compound 148, (R)-N-(5-((5-(4-acryloyl-3-isopropyl-1,4-diazepane-1-carbonyl)-4-methoxy-2-methylphenyl)thio)thiazol-2-yl)cyclopropanecarboxamide], the IC50 against ITK was less than 10 nM; against TXK, 100 to 1000 nM; against JAK3, no less than 10000 nM; on BTK, 100 to 1000 nM. In addition, the TXK/ITK at TXK was found to be 82.31.

For the compound `C=CC(=O)N1CCN(C(=O)c2cc(Sc3cnc(NC(=O)C4CC4)s3)c(C)cc2C)C[C@H]1CC` [Compound 100], the IC50 at ITK was less than 10 nM; on TXK, 10 to 100 nM; against JAK3, 100 to 1000 nM; on BTK it was 1000 to 10000 nM. Moreover, the TXK/ITK at TXK is 8.8107.

As for `C=CC(=O)N1CCN(C(=O)c2cc(Sc3cnc(NC(=O)c4ccsc4)s3)c(C)cc2OC)C(C)(C)C1` [Compound 142, N-(5-((5-(4-acryloyl-2,2-dimethylpiperazine-1-carbonyl)-4-methoxy-2-methylphenyl)thio)thiazol-2-yl)thiophene-3-carboxamide], the IC50 at ITK, at TXK, against JAK3 and on BTK was less than 10 nM throughout. Moreover, the TXK/ITK on TXK was 1.00.

For the compound `C=CC(=O)N1CCN(C(=O)c2cc(Sc3cnc(NC(=O)c4cccc(CN(C)C)c4)s3)c(C)cc2OC)CC(F)C1` (stereo not drawn) [Compound 66], the IC50 at ITK was less than 10 nM; against TXK it was 100 to 1000 nM; against JAK3, 100 to 1000 nM; at BTK, 100 to 1000 nM. In addition, at TXK, the TXK/ITK is recorded as 70.047.

As for `C=CC(=O)N1CCN(C(=O)c2cc(Sc3cnc(NC(=O)C4CC4)s3)ccc2OC)CC1` [Compound 78], the IC50 against ITK is less than 10 nM; against TXK it was 10 to 100 nM; against JAK3 it was 100 to 1000 nM; on BTK it was 100 to 1000 nM. Also, the TXK/ITK on TXK was found to be 10.586.

With `C=CC(=O)N1CCN(C(=O)c2cc(Sc3cnc(NC(=O)C4CC4)s3)c(C)cc2CC)C[C@H]1CC` [Compound 104], the IC50 is less than 10 nM against ITK, 10 to 100 nM against TXK, 100 to 1000 nM on JAK3 and 100 to 1000 nM against BTK. For the same compound, on TXK, the TXK/ITK was found to be 3.6.

Take `C=CC(=O)N1CCN(C(=O)c2cc(Sc3cnc(NC(=O)C4CC4)s3)c(F)cc2C)C[C@H]1C` [Compound 82]: the IC50 against ITK was 10 to 100 nM; on TXK, 100 to 1000 nM; against JAK3, 100 to 1000 nM; at BTK, no less than 10000 nM. For the same compound, the TXK/ITK at TXK is 9.2468.

For the compound `C=CC(=O)N1CCCN(C(=O)c2cc(Sc3cnc(Nc4ncccc4C)s3)c(C)cc2OC)C[C@H]1C` [Compound 136], the IC50 against ITK was less than 10 nM; against TXK, 10 to 100 nM; on JAK3, 100 to 1000 nM; against BTK, 10 to 100 nM. Moreover, the TXK/ITK at TXK is 42.

Turning to `C=CC(=O)N1CC[C@@H](N(C)C(=O)c2cc(Sc3cnc(Nc4ccccn4)s3)c(C)cc2OC)C1` [Compound 154, (R)-N-(1-acryloylpyrrolidin-3-yl)-2-methoxy-N,4-dimethyl-5-((2-(pyridin-2-ylamino)thiazol-5-yl)thio)benzamide], the IC50 on ITK, at TXK, on JAK3 and against BTK was less than 10 nM throughout. Further, the TXK/ITK at TXK is listed as 1.01.

As to `C=CC(=O)N1CCN(C(=O)c2cc(Sc3cnc(NC(=O)C4CCCC4)s3)c(C)cc2OC)CC1` [Compound 31], the IC50 against ITK is 10 to 100 nM; at TXK, 100 to 1000 nM; at JAK3, 1000 to 10000 nM; against BTK, 1000 to 10000 nM. For the same compound, the TXK/ITK on TXK amounted to 19.291.

Take `C=CC(=O)N1CC[C@@H](N(C)C(=O)c2cc(Sc3cnc(NC(C)=O)s3)c(C)cc2OC)C1` [Compound 28]: the IC50 was less than 10 nM on ITK, 10 to 100 nM against TXK, 10 to 100 nM against JAK3 and less than 10 nM against BTK. Further, the TXK/ITK on TXK is 5.5925.

As for `C=CC(=O)N1CCN(C(=O)c2cc(Sc3cnc(NC(=O)c4cccc(CN(C)C)c4)s3)c(C)cc2OC)CC1` [Compound 14], the IC50 on ITK is less than 10 nM; on TXK it was 100 to 1000 nM; against JAK3 it was 1000 to 10000 nM; against BTK it was 100 to 1000 nM. The TXK/ITK at TXK amounted to 79.163.

On to `C=CC(=O)N1CCN(C(=O)c2cc(Sc3cnc(NC(=O)C4CC4)s3)c(C)cc2OC)C[C@H]1CC` [Compound 42], for which the IC50 was less than 10 nM on ITK, 10 to 100 nM against TXK, 1000 to 10000 nM against JAK3 and 1000 to 10000 nM against BTK. Besides, on TXK, the TXK/ITK is given as 10.152.

As for `C=CC(=O)N1CC[C@@H](N(C)C(=O)c2cc(Sc3cnc(NC(=O)c4ccsc4)s3)c(C)cc2OC)C1` [Compound 146, (R)-N-(5-((5-((1-acryloylpyrrolidin-3-yl)(methyl)carbamoyl)-4-methoxy-2-methylphenyl)thio)thiazol-2-yl)thiophene-3-carboxamide], the IC50 against ITK, on TXK, against JAK3 and against BTK was less than 10 nM in each case. In addition, the TXK/ITK on TXK is recorded as 3.19.

`C=CC(=O)N1CCCN(C(=O)c2cc(Sc3cnc(NC(=O)c4cnsc4)s3)c(C)cc2C)C[C@H]1CC` [Compound 123]: the half-maximal inhibitory concentration (IC50) was less than 10 nM against ITK, 100 to 1000 nM against TXK, 1000 to 10000 nM on JAK3 and 100 to 1000 nM on BTK. For the same compound, at TXK, the TXK/ITK worked out at 144.0.

Regarding `C=CC(=O)N1CCN(C(=O)c2cc(Sc3cnc(NC(=O)CC)s3)c(C)cc2OC)[C@@H](C)C1` [Compound 51], the IC50 against ITK was less than 10 nM; against TXK, 10 to 100 nM; against JAK3, 1000 to 10000 nM; at BTK, 100 to 1000 nM. Besides, the TXK/ITK on TXK worked out at 14.645.

For the compound `C=CC(=O)N1CCN(C(=O)c2cc(Sc3cnc(NC(C)=O)s3)c(C)cc2OC)CC1` [Compound 2], the IC50 is less than 10 nM at ITK, 100 to 1000 nM against TXK, 100 to 1000 nM against JAK3 and 100 to 1000 nM at BTK. Besides, the TXK/ITK on TXK was found to be 19.869.

With `C=CC(=O)N1CCCN(C(=O)c2cc(Sc3cnc(NC(=O)C4CC4)s3)c(C)cc2CC)C[C@H]1C` [Compound 105], the IC50 is less than 10 nM at ITK, 100 to 1000 nM against TXK, 1000 to 10000 nM at JAK3 and 100 to 1000 nM at BTK. Besides, the TXK/ITK at TXK came to 12.3.

On to `C=CC(=O)N1CCCN(C(=O)c2cc(Sc3cnc(Nc4ccccn4)s3)c(C)cc2OC)C[C@H]1C(C)C` [Compound 147, (R)-l-(2-isopropyl-4-(2-methoxy-4-methyl-5-((2-(pyridin-2-ylamino)thiazol-5-yl)thio)benzoyl)-1,4-diazepan-1-yl)prop-2-en-1-one], for which the IC50 on ITK is less than 10 nM; at TXK, 100 to 1000 nM; against JAK3 it was 1000 to 10000 nM; against BTK, 10 to 100 nM. Also, on TXK, the TXK/ITK came to 29.58.

As to `C=CC(=O)N1CCN(C(=O)c2cc(Sc3cnc(NC(=O)C4CC4)s3)c(C)cc2OC)CC1(C)C` [Compound 16], the IC50 at ITK is 10 to 100 nM; against TXK, 10 to 100 nM; against JAK3 it was 100 to 1000 nM; against BTK it was 100 to 1000 nM. On TXK, the TXK/ITK is reported as 4.9287.

As for `C=CC(=O)N1CCN(C(=O)c2cc(Sc3cnc(NC(=O)c4cnsc4)s3)c(C)cc2OC)CC1` [Compound 85], the half-inhibitory concentration (IC50) is less than 10 nM at ITK, 10 to 100 nM against TXK, 100 to 1000 nM against JAK3 and 100 to 1000 nM on BTK. Besides, the TXK/ITK at TXK stood at 33.582.

Consider `C=CC(=O)N1CCCN(C(=O)c2cc(Sc3cnc(NC(=O)C(C)C)s3)c(C)cc2OC)CC1` [Compound 36], for which the IC50 against ITK is 10 to 100 nM; on TXK, 1000 to 10000 nM; against JAK3, no less than 10000 nM; on BTK, 1000 to 10000 nM. In addition, the TXK/ITK on TXK was 72.34.

What is called IC50 is the point on the concentration scale where inhibition reaches its midpoint.
